Broadly, the EC50 is the concentration that produces a half-maximal response.

Assay [1] concerns HIV-1. The assay can be described thus: Release of HIV-1 from transfected 293T cells, p24 in media. It counts as cell-based. Conditions: 293T cells transfected with pR9-HIV-1Ba-L, read-out: EC50, inhibition of HIV-1 release. How it is done:
Effect of Ilaprazole on release of HIV-1 in vitro. To establish the broad-spectrum potential of ilaprazole, we tested whether ilaprazole would inhibit the release of HIV-1 from 293T cells. To this end, cells were transfected with pR9-HIV-1Ba-L plasmid and release of virus into the media fraction was detected by monitoring the capsid (CA) protein (p24) via enzyme linked immunosorbent assay analysis. The drug was tested at concentrations between 0 and 40 μM and the effect of the drug on release of virus assessed (Table 4, shown in FIG. 8, column 2). Ilaprazole was effective at inhibiting the release of HIV-1 from cells with a calculated EC50 of 1 μM or less as described in Materials and Methods.
HIV-1 transfection of 293T cells. 293T cells (American Type Culture Collection) were grown in a 24-well Clear Flat Bottom TC-treated Multiwell Cell Culture Plate using Dulbecco's modified Eagle's medium (Cellgro) containing fetal bovine serum (10%), 100 U/ml penicillin, 100 μg/ml streptomycin, and 292 μg/ml 1-glutamine (Cellgro). […] Virus released from cells was quantified by media-associated p24 determined using fluorescently tagged CA targeting antibody (PerkinElmer) and equivalent amounts of p24 as standards.
Drug potency and cell toxicity. EC50 calculations were determined by using AAT Bioquest's EC50 calculator. […]

Assay [2] deals with T1, MEK4 (Homo sapiens, UniProt P45985).
T1 sequence (P45985 1-399): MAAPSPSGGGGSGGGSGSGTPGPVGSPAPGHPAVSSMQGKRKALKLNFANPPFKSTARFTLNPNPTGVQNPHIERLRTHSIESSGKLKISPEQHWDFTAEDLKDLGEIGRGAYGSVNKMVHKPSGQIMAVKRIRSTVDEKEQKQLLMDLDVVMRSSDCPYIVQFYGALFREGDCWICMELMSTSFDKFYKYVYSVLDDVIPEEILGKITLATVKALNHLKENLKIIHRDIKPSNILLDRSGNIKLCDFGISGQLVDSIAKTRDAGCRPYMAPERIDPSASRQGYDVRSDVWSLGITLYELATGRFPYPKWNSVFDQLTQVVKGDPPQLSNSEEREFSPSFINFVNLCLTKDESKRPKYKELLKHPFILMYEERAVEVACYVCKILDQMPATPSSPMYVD
The assay can be described thus: FTS assay against unrelated protein MEK4. It counts as binding. The text has this: FIG. 1. Thermal shift data of Tsg101 by lead compound Tenatoprazole (N16). […] (B) Thermal shift data of three human proteins, DHPH, ENO1, and MEK4 not related to Tsg101 by lead compound tenatoprazole. […] (C) The addition of DTT abolishes the Tm shift in the FTS assay, consistent with prazole compounds forming a disulfide bond to Tsg101. Rabe: Rabeprazole, Ila: Ilaprazole, Tenato: tenatoprazole, Panto: pantoprazole, ref: reference.
This specific binding is consistent with a previous NMR structure in which tenatoprazole forms a covalent disulfide bond to Cys73 in the UEV domain of the protein (5). This disulfide bond formation can be prevented by including the reducing agent DTT in the assay (FIG. 1C). The addition of DTT abolished the Tsg101-UEV Tm shift caused by the prazoles. […]
Fluorescence thermal shift (FTS) screening to identify small molecule binding to Tsg101-UEV. […] Discovery of small molecule binding to target protein utilizes the observation that ligand binding affects protein thermal stability, and therefore can be detected through a shift in the protein's thermal denaturation (melting) temperature (Tm). […] A fluorescence dye Sypro-Orange (Invitrogen) was used for assay detection. The dye is excited at 473 nm and has a fluorescence emission at 610 nm. […] Fluorescence was detected on a real-time PCR machine CFX384 (Bio-Rad Laboratories).

In assay [3] the test system is HIV-1. Conditions: earlier reports (refs 5, 29); cited from earlier work.

Molecules are shown by their SMILES. “Also recorded” adds a separate entry of the source. Like-named read-outs stand apart in the source and are kept apart here. Bounds are passed on as bounds.

For the compound `COc1ccnc(C[S+]([O-])c2nc3ccc(-n4cccc4)cc3[nH]2)c1C` (stereo not shown) [Ilaprazole, 2-[(4-methoxy-3-methylpyridin-2-yl)methylsulfinyl]-6-pyrrol-1-yl-1H-benzimidazole], the EC50 in assay [1] was at most 1000 nM; in assay [1] (Human immunodeficiency virus 1, HEK-293T), 800 to 1200 nM.
For the compound `COc1ccc2[nH]c([S+]([O-])Cc3ncc(C)c(OC)c3C)nc2n1` (stereo not shown) [Tenatoprazole], in assay [2], the “Effect on thermal stability (Tm shift) of MEK4” value was “negligible; also recorded: did not observe a Tm shift”. Moreover, the “Inhibition of release of infectious HIV-1 from 293T cells” value in assay [3] is given as “quantitatively inhibit the release”.

(Values after US11666562B2, “Ilaprazole for inhibiting the release of enveloped viruses from cells” (Northwestern University, priority 2020, dated 2023).)
